According to patent publication US12668600B2 (Kumquat Biosciences Inc., priority 2023, dated 2026):

How the values were obtained:
Format in all cases: biochemical
KRAS G12D = target: T1, KRAS G12D (Homo sapiens, UniProt P01116, G12D); experiment: HTRF KRAS-SOS1 interaction assay, KRAS G12D; details: binned ≤2 μM / >2 μM, read-out: Inhibition of KRAS G12D (IC50)
T1 construct: made in house; host or cells: E. coli, e.g. BL21 (DE3)
Method in brief: (§1)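 GST-KRAS + anti-GST-Eu; His-hSOS1 + anti-6His-XL665; cpd in DMSO, duplicate, 10–0.01 μM; ~10 min incubation; HTRF ex 337/em 620, 665 nm; IC50 fitted on 665/620 ratio.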

KRAS WT = target: T2, KRAS WT (Homo sapiens, UniProt P01116); experiment: HTRF KRAS-SOS1 interaction assay, wildtype KRAS; details: binned ≤2 μM / >2 μM, read-out: Inhibition of KRAS WT (IC50)
T2 construct: made in house; host or cells: E. coli, e.g. BL21 (DE3)
Method in brief: as §1

KRAS G12V = target: T3, KRAS G12V (Homo sapiens, UniProt P01116, G12V); experiment: HTRF KRAS-SOS1 interaction assay, KRAS G12V; details: binned ≤2 μM / >2 μM, read-out: Inhibition of KRAS G12V (IC50)
T3 construct: made in house; host or cells: E. coli, e.g. BL21 (DE3)
Method in brief: as §1

KRAS G12S = target: T4, KRAS G12S (Homo sapiens, UniProt P01116, G12S); experiment: HTRF KRAS-SOS1 interaction assay, KRAS G12S; details: binned ≤2 μM / >2 μM, read-out: Inhibition of KRAS G12S (IC50)
T4 construct: made in house; host or cells: E. coli, e.g. BL21 (DE3)
Method in brief: as §1

T1 sequence (P01116 1-188 isoform P01116-2 G12D): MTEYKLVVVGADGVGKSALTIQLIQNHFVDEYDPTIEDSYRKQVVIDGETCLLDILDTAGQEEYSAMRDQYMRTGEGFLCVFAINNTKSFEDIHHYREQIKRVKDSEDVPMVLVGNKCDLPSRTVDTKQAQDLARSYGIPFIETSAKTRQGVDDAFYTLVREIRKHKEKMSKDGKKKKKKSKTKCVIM
T2 sequence (P01116 1-188 isoform P01116-2): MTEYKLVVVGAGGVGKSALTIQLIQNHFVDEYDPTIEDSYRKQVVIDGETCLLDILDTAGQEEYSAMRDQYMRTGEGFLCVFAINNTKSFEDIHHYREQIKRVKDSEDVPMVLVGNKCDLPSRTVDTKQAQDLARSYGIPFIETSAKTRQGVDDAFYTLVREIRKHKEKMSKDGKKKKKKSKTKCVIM
T3 sequence (P01116 1-188 isoform P01116-2 G12V): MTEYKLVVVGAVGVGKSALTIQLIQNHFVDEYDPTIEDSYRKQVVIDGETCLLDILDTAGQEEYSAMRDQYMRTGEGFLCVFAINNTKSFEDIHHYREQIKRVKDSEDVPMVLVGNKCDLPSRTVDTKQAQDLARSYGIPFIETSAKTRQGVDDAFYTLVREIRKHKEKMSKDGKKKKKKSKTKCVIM
T4 sequence (P01116 1-188 isoform P01116-2 G12S): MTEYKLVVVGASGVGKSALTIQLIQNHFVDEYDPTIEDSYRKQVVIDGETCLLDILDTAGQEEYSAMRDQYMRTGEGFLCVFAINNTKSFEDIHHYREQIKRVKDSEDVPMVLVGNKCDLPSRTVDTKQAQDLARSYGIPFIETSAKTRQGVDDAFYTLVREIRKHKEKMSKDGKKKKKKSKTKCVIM

| Structure (SMILES) | IC50 (KRAS G12D) [nM] | IC50 (KRAS WT) [nM] | IC50 (KRAS G12V) [nM] | IC50 (KRAS G12S) [nM] |
| --- | --- | --- | --- | --- |
| C[C@@H]1CN(CC2(COc3nc4c5c(c(C(F)(F)F)c(-c6ccc(F)c7sc(N)c(C#N)c67)c(F)c5n3)OCCN4[C@H](C)c3cccnc3N)CC2)CCO1 (single isomer, unassigned) [Compound 812] | ≤ 2000 | ≤ 2000 | ≤ 2000 | ≤ 2000 |
| N#Cc1c(N)sc2c(F)ccc(-c3c(C(F)(F)F)c4c5c(nc(OC[C@@]67CCCN6C[C@H](F)C7)nc5c3F)N([C@H](CCC3CC3)c3cccnc3N)CCO4)c12 (single isomer, unassigned) [Compound 877] | ≤ 2000 | ≤ 2000 | ≤ 2000 | ≤ 2000 |
| COC[C@H](c1cccnc1N)N1CCOc2c(C(F)(F)F)c(-c3ccc(F)c4sc(N)c(C#N)c34)c(F)c3nc(OC[C@@]45CCCN4C[C@H](F)C5)nc1c23 [Compound 684, 2-amino-4-(4-((S)-1-(2-aminopyridin-3-yl)-2-methoxyethyl)-10-fluoro-2-(((2R,7aS)-2-fluorotetrahydro-1H-pyrrolizin-7a(5H)-yl)methoxy)-8-(trifluoromethyl)-5,6-dihydro-4H-[1,4]oxazepino[5,6,7-de]quinazolin-9-yl)-7-fluorobenzo[b]thiophene-3-carbonitrile] | ≤ 2000 | ≤ 2000 | ≤ 2000 | ≤ 2000 |
| C[C@H](c1cc(Cl)cnc1N)N1CCOc2c(C(F)(F)F)c(-c3ccc(F)c4sc(N)c(C#N)c34)c(F)c3nc(OCC4(CN5CC[C@@H](F)C5)CC4)nc1c23 [Compound 811, 2-amino-4-(4-((R)-1-(2-amino-5-chloropyridin-3-yl)ethyl)-10-fluoro-2-((1-(((R)-3-fluoropyrrolidin-1-yl)methyl)cyclopropyl)methoxy)-8-(trifluoromethyl)-5,6-dihydro-4H-[1,4]oxazepino[5,6,7-de]quinazolin-9-yl)-7-fluorobenzo[b]thiophene-3-carbonitrile] | ≤ 2000 | ≤ 2000 | ≤ 2000 | ≤ 2000 |
| C=C(F)[C@@H](c1cccnc1N)N1CCOc2c(Cl)c(-c3ccc(F)c4sc(N)c(C#N)c34)c(F)c3nc(OC[C@@]45CCCN4C[C@H](F)C5)nc1c23 [Compound 601, 2-amino-4-(4-((R)-1-(2-aminopyridin-3-yl)-2-fluoroallyl)-8-chloro-10-fluoro-2-(((2R,7aS)-2-fluorotetrahydro-1H-pyrrolizin-7a(5H)-yl)methoxy)-5,6-dihydro-4H-[1,4]oxazepino[5,6,7-de]quinazolin-9-yl)-7-fluorobenzo[b]thiophene-3-carbonitrile] | ≤ 2000 | ≤ 2000 | ≤ 2000 | ≤ 2000 |
| C[C@H](c1cccnc1N)N1CCOc2c(Cl)c(-c3ccc(F)c4sc(N)c(C#N)c34)c(F)c3nc(OC[C@@H]4CC(F)(F)CN4C)nc1c23 (single isomer, unassigned) [Compound 741] | ≤ 2000 | ≤ 2000 | ≤ 2000 | ≤ 2000 |
| CO[C@H]1CCN(C)[C@@H]1COc1nc2c3c(c(C(F)(F)F)c(-c4ccc(F)c5sc(N)c(C#N)c45)c(F)c3n1)OCCN2[C@H](C)c1cccnc1N [Compound 673, 2-amino-4-(4-((R)-1-(2-aminopyridin-3-yl)ethyl)-10-fluoro-2-(((2R,3S)-3-methoxy-1-methylpyrrolidin-2-yl)methoxy)-8-(trifluoromethyl)-5,6-dihydro-4H-[1,4]oxazepino[5,6,7-de]quinazolin-9-yl)-7-fluorobenzo[b]thiophene-3-carbonitrile] | ≤ 2000 | ≤ 2000 | ≤ 2000 | ≤ 2000 |
| N#Cc1c(N)sc2c(F)ccc(-c3c(C(F)(F)F)c4c5c(nc(OC[C@@]67CCCN6C[C@H](F)C7)nc5c3F)N([C@H](C/C=C/C(F)(F)F)c3cccnc3N)CCO4)c12 (single isomer, unassigned) [Compound 739] | ≤ 2000 | ≤ 2000 | ≤ 2000 | ≤ 2000 |
| C#Cc1c(F)ccc2cc(O)cc(-c3nc4c5c(nc(OC[C@@]67CCCN6C[C@H](F)C7)nc5c3F)N(C(C)c3cccnc3N)CCO4)c12 (mixture of isomers) [Compound 742, 4-(10-(1-(2-aminopyridin-3-yl)ethyl)-4-fluoro-2-(((2R,7aS)-2-fluorotetrahydro-1H-pyrrolizin-7a (5H)-yl)methoxy)-9,10-dihydro-8H-7-oxa-1,3,6,10-tetraazacyclohepta[de]naphthalen-5-yl)-5-ethynyl-6-fluoronaphthalen-2-ol] | ≤ 2000 | ≤ 2000 | ≤ 2000 | ≤ 2000 |

Next, values leading:

| IC50 (KRAS G12D) [nM] | IC50 (KRAS WT) [nM] | IC50 (KRAS G12V) [nM] | IC50 (KRAS G12S) [nM] | Structure (SMILES) |
| --- | --- | --- | --- | --- |
| > 2000 | > 2000 | > 2000 | > 2000 | C[C@H](c1nccnc1N)N1CCOc2c(C(F)(F)F)c(-c3ccc(F)c4sc(N)c(C#N)c34)c(F)c3nc(OC[C@@]45CCCN4C[C@H](F)C5)nc1c23 (single isomer, unassigned) [Compound 797] |
| ≤ 2000 | ≤ 2000 | ≤ 2000 | ≤ 2000 | CON=C1CN2CCC[C@@]2(COc2nc3c4c(c(C(F)(F)F)c(-c5ccc(F)c6sc(N)c(C#N)c56)c(F)c4n2)OCCN3[C@H](C)c2cccnc2N)C1 (mixture of isomers) [Compound 622, 2-amino-4 ((S)-4-((R)-1-(2-aminopyridin-3-yl)ethyl)-10-fluoro-2-(((S)-2-(methoxyimino)tetrahydro-1H-pyrrolizin-7a (5H)-yl)methoxy)-8-(trifluoromethyl)-5,6-dihydro-4H-[1,4]oxazepino[5,6,7-de]quinazolin-9-yl)-7-fluorobenzo[b]thiophene-3-carbonitrile] |
| ≤ 2000 | ≤ 2000 | ≤ 2000 | ≤ 2000 | C[C@H](c1cc(F)cnc1N)N1CCOc2c(C(F)(F)F)c(-c3ccc(F)c4sc(N)c(C#N)c34)c(F)c3nc(OCC4(CN5CCC6(CC5)CC6(F)F)CC4)nc1c23 [Compound 841, 2-amino-4-(4-((R)-1-(2-amino-5-fluoropyridin-3-yl)ethyl)-2-((1-((1,1-difluoro-6-azaspiro[2.5]octan-6-yl)methyl)cyclopropyl)methoxy)-10-fluoro-8-(trifluoromethyl)-5,6-dihydro-4H-[1,4]oxazepino[5,6,7-de]quinazolin-9-yl)-7-fluorobenzo[b]thiophene-3-carbonitrile] |
| ≤ 2000 | ≤ 2000 | ≤ 2000 | ≤ 2000 | C#C[C@H](c1cccnc1N)N1CCOc2c(Cl)c(-c3ccc(F)c4sc(N)c(C#N)c34)c(F)c3nc(OC[C@@]45CCCN4C[C@H](F)C5)nc1c23 [Compound 904, 2-amino-4-(4-((R)-1-(2-aminopyridin-3-yl)prop-2-yn-1-yl)-8-chloro-10-fluoro-2-(((2R,7aS)-2-fluorotetrahydro-1H-pyrrolizin-7a(5H)-yl)methoxy)-5,6-dihydro-4H-[1,4]oxazepino[5,6,7-de]quinazolin-9-yl)-7-fluorobenzo[b]thiophene-3-carbonitrile] |
| ≤ 2000 | ≤ 2000 | ≤ 2000 | ≤ 2000 | CNc1sc2c(F)ccc(-c3c(C(F)(F)F)c4c5c(nc(OC[C@@]67CCCN6C[C@H](F)C7)nc5c3F)N([C@H](CCC3CCOCC3)c3cccnc3N)CCO4)c2c1C#N [Compound 709, 4-(4-((R)-1-(2-aminopyridin-3-yl)-3-(tetrahydro-2H-pyran-4-yl)propyl)-10-fluoro-2-(((2R,7aS)-2-fluorotetrahydro-1H-pyrrolizin-7a(5H)-yl)methoxy)-8-(trifluoromethyl)-5,6-dihydro-4H-[1,4]oxazepino[5,6,7-de]quinazolin-9-yl)-7-fluoro-2-(methylamino)benzo[b]thiophene-3-carbonitrile] |
| ≤ 2000 | ≤ 2000 | ≤ 2000 | ≤ 2000 | C[C@H](c1cccnc1N)N1CCOc2c(C(F)(F)F)c(-c3ccc(F)c4sc(N)c(C#N)c34)c(F)c3nc(OCC4(CN5[C@H](C)COC[C@@H]5C)CC4)nc1c23 (single isomer, unassigned) [Compound 763] |
| ≤ 2000 | ≤ 2000 | ≤ 2000 | ≤ 2000 | C=C[C@H]1COc2c(Cl)c(-c3ccc(F)c4sc(N)c(C#N)c34)c(F)c3nc(OC[C@@]45CCCN4C[C@H](F)C5)nc(c23)N1C(C)c1cccnc1N (single isomer, unassigned) [Compound 732] |
| ≤ 2000 | ≤ 2000 | ≤ 2000 | ≤ 2000 | C=CC[C@H](c1cccnc1N)N1CCOc2c(Cl)c(-c3ccc(F)c4sc(N)c(C#N)c34)c(F)c3nc(OC[C@@]45CCCN4C[C@H](F)C5)nc1c23 (atropisomer, axis not shown; (aS)) [Compound 683, 2-amino-4-((R)-4-((R)-1-(2-aminopyridin-3-yl)but-3-en-1-yl)-8-chloro-10-fluoro-2-(((2R,7aS)-2-fluorotetrahydro-1H-pyrrolizin-7a (5H)-yl)methoxy)-5,6-dihydro-4H-[1,4]oxazepino[5,6,7-de]quinazolin-9-yl)-7-fluorobenzo[b]thiophene-3-carbonitrile] |
